According to ChEMBL document CHEMBL1201862, “PubChem BioAssay data set” (2004):
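These data come from cells grown in 96-well plates and exposed to compound for 48 hours at five concentrations. Here, GI50 denotes the concentration required for 50% inhibition of growth.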 Active and inactive are the calls of the source. Rule as the data show it: active = GI50 up to about 1.1 µM and inactive = higher.

Key:
Assay in all cases: NCI-60 cell line screen, 48 h
786-0 = system: 786-0
A498 = system: A498
COLO 205 = system: COLO 205
HOP-62 = system: HOP-62
K562 = system: K562
LOX IMVI = system: LOX IMVI
NCI-H226 = system: NCI-H226
NCI-H460 = system: NCI-H460
OVCAR-3 = system: OVCAR-3
OVCAR-8 = system: OVCAR-8
RPMI-8226 = system: RPMI-8226
RXF 393 = system: RXF 393
SK-OV-3 = system: SK-OV-3
SNB-19 = system: SNB-19
SNB-75 = system: SNB-75
SW-620 = system: SW-620
TK-10 = system: TK-10
U-251 = system: U-251
UACC-62 = system: UACC-62

Measured: GI50

Cc1ccccc1-c1c(N)nc(N)nc1C(=O)Nc1nccs1
inactive: 786-0 > 100 µM | A498 > 100 µM | COLO 205 > 100 µM | HOP-62 > 100 µM | K562 > 100 µM | LOX IMVI > 100 µM | NCI-H226 > 100 µM | NCI-H460 > 100 µM | OVCAR-3 > 100 µM | OVCAR-8 > 100 µM | RPMI-8226 > 100 µM | RXF 393 > 100 µM | SK-OV-3 > 100 µM | SNB-19 > 100 µM | SNB-75 > 100 µM | SW-620 > 100 µM | TK-10 > 100 µM | U-251 > 100 µM | UACC-62 > 100 µM

N#CC1C(C#N)C2(c3ccccc3)C(c3ccccc3)=NN(c3ccccc3)CC12 (stereo unspecified)
inactive: 786-0 > 100 µM | A498 > 100 µM | K562 > 100 µM | LOX IMVI > 100 µM | NCI-H226 > 100 µM | NCI-H460 > 100 µM | OVCAR-3 > 100 µM | OVCAR-8 > 100 µM | RPMI-8226 > 100 µM | RXF 393 > 100 µM | SNB-19 > 100 µM | SNB-75 36.4 µM | SW-620 > 100 µM | TK-10 > 100 µM | U-251 > 100 µM | UACC-62 94.8 µM

CC1=C(C(=O)Nc2ccccc2)C(c2cc(Cl)cc(Cl)c2)C(C(=O)Nc2ccccc2)=C(C)N1
inactive: 786-0 9.04 µM | A498 22.6 µM | COLO 205 17 µM | HOP-62 13.6 µM | K562 1.35 µM | LOX IMVI 4.79 µM | NCI-H226 15.1 µM | NCI-H460 18.6 µM | OVCAR-3 8.22 µM | OVCAR-8 10.5 µM | RPMI-8226 3.84 µM | RXF 393 12.9 µM | SK-OV-3 36.8 µM | SNB-19 14.2 µM | SNB-75 10.8 µM | SW-620 8.28 µM | TK-10 16.7 µM | U-251 3.33 µM | UACC-62 3.94 µM

CC(C)(C)OC(=O)N1N=NC2C3OC(CC3=O)C21 (stereo unspecified)
inactive: 786-0 > 100 µM | A498 > 100 µM | COLO 205 > 100 µM | HOP-62 > 100 µM | K562 > 100 µM | LOX IMVI > 100 µM | NCI-H226 2.8 µM | NCI-H460 > 100 µM | OVCAR-3 > 100 µM | OVCAR-8 > 100 µM | RPMI-8226 > 100 µM | RXF 393 > 10 µM | SK-OV-3 18.6 µM | SNB-19 > 100 µM | SNB-75 > 100 µM | SW-620 > 100 µM | TK-10 > 100 µM | U-251 > 100 µM | UACC-62 > 100 µM

CC1(C)S[C@H](c2ccccc2C(=O)O)N[C@@H]1CC(=O)O
inactive: 786-0 > 100 µM | A498 > 100 µM | COLO 205 > 100 µM | HOP-62 > 100 µM | K562 > 100 µM | LOX IMVI > 100 µM | NCI-H226 > 100 µM | NCI-H460 > 100 µM | OVCAR-8 > 100 µM | RPMI-8226 > 100 µM | RXF 393 > 100 µM | SNB-19 > 100 µM | SNB-75 > 100 µM | SW-620 > 100 µM | U-251 > 100 µM | UACC-62 > 100 µM

O=C(O)c1ccc(C2=Cc3cc(Cl)ccc3OC2)cc1
inactive: 786-0 > 100 µM | A498 > 100 µM | COLO 205 > 100 µM | HOP-62 > 100 µM | K562 > 100 µM | LOX IMVI > 100 µM | NCI-H226 > 100 µM | NCI-H460 > 100 µM | OVCAR-3 > 100 µM | OVCAR-8 > 100 µM | RPMI-8226 > 100 µM | RXF 393 > 100 µM | SK-OV-3 > 100 µM | SNB-19 > 100 µM | SNB-75 22 µM | SW-620 > 100 µM | TK-10 > 100 µM | U-251 > 100 µM | UACC-62 > 100 µM

C=CC1(C)CC(=O)C2(O)C(C)(O1)C(OC(C)=O)C(O)C1C(C)(C)CCC(O)C12C (stereo unspecified)
inactive: 786-0 > 100 µM | A498 > 150 µM | COLO 205 104 µM | HOP-62 59.7 µM | K562 > 150 µM | LOX IMVI 60.8 µM | NCI-H226 3.41 µM | NCI-H460 89.1 µM | OVCAR-3 > 150 µM | OVCAR-8 > 76.4 µM | RPMI-8226 27.1 µM | RXF 393 7.62 µM | SK-OV-3 29.7 µM | SNB-19 > 150 µM | SNB-75 52 µM | SW-620 > 150 µM | TK-10 1.45 µM | U-251 71 µM | UACC-62 69.7 µM

COC(=O)C(C(=O)C(=O)Nc1cccc(C)c1)C1=NC(N)SS1 (stereo unspecified)
inactive: 786-0 > 100 µM | A498 > 100 µM | COLO 205 > 100 µM | HOP-62 > 100 µM | K562 > 100 µM | LOX IMVI > 100 µM | NCI-H226 > 100 µM | NCI-H460 > 100 µM | OVCAR-3 > 100 µM | OVCAR-8 > 100 µM | RPMI-8226 > 100 µM | RXF 393 > 100 µM | SK-OV-3 > 100 µM | SNB-19 > 100 µM | SNB-75 > 100 µM | SW-620 > 100 µM | TK-10 > 100 µM | U-251 > 100 µM | UACC-62 > 100 µM
